Structures can show the parent of a compound that is named as a salt.
Target: T1, human FXa (Homo sapiens, UniProt P00742)
T1 construct: purchased Enzyme Research Laboratories, Inc
Test: Determination of human FXa-inhibiting effect (IC50 value)
Assay type: biochemical
Settings: S-2222 chromogenic substrate, absorbance at 405 nm, Tris buffer pH 7.4, room temperature
Procedure: A 5% DMSO solution (10 μl) of each test compound, the concentrations of which had been suitably set stepwise, and Tris buffer (100 mM Tris, 200 mM potassium chloride, 0.2% BSA, pH 7.4) (40 μl) and 0.0625 U/ml human FXa (Enzyme Research Laboratories, Inc., dissolved in and diluted with Tris buffer) (10 μl) were put in each of the wells of a 96-well microplate. A 750 μM aqueous solution (40 μl) of S-2222 (Chromogenix Co.) was added. Absorbance at 405 nm was measured for 10 minutes at room temperature to determine an increase in absorbance (ΔOD/min). As a control, Tris buffer was used in place of the test compound.
The percent inhibition (%) calculated using the following equation at the final concentration of the test compound and the final concentration of the test compound were plotted on the ordinate and abscissa of logarithmic probability paper, respectively, to determine the 50% inhibition concentration (IC50 value) Percent inhibition (%)=[1−(ΔOD/min of test compound)÷(ΔOD/min of control)]×100

T1 sequence (P00742 235-488 limits assumed): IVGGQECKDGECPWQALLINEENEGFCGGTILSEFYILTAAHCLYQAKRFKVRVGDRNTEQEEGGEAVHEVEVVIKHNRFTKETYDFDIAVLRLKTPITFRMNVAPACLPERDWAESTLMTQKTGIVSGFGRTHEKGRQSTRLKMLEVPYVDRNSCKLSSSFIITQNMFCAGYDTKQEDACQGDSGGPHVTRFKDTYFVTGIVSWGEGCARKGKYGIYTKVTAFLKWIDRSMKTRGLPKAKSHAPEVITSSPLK
T1 sequence (P00742 41-179 partner limits assumed): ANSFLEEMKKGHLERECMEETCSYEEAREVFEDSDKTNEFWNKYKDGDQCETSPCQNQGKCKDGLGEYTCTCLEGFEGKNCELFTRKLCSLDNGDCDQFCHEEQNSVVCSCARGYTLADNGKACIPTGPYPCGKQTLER

Row | Structure (SMILES) | IC50
1 | CN1CCc2nc(C(=O)N[C@@H](CNC(=O)C(=O)Nc3ccc(Br)cn3)C(=O)N(C)C)sc2C1 [Example 37, N^1-(5-Bromopyridin-2-yl)-N^2-((2S)-3-(dimethylamino)-2-{[(5-methyl-4,5,6,7-tetrahydrothiazolo[5,4-c]pyridine-2-yl)carbonyl]amino}-3-oxopropyl)ethanediamide hydrochloride] | 1.5 nM
2 | C[C@@H](NC(=O)C(=O)Nc1ccc(Cl)cn1)[C@H](NC(=O)c1nc2c(s1)CN(C)CC2)C(=O)N(C)C [Example 66, N^1-(5-Chloropyridin-2-yl)-N^2-((1R,2S)-3-(dimethylamino)-1-methyl-2-{[(5-methyl-4,5,6,7-tetrahydrothiazlo [5,4-c]pyridin-2-yl)carbonyl]amino}-3-oxopropyl)ethanediamide hydrochloride] | 2 nM
3 | CN1CCc2nc(C(=O)N[C@@H](CNC(=O)C(=O)Nc3ccc(Cl)s3)C(=O)N(C)C)sc2C1 [Example 40, N^1-(5-Chlorothien-2-yl)-N^2-((2S)-3-(dimethylamino)-2-{[(5-methyl-4,5,6,7-tetrahydrothiazolo[5,4-c]pyridin-2-yl)carbonyl]amino}-3-oxopropyl)ethanediamide hydrochloride] | 1.3 nM
4 | CN1CCc2nc(C(=O)N[C@@H](CNC(=O)C(=O)Nc3ccc(Cl)cc3)C(=O)N(C)C)sc2C1 [Example 39, N^1-(4-Chlorophenyl)-N^2-((2S)-3-(dimethylamino)-2-{[(5-methyl-4,5,6,7-tetrahydrothiazolo[5,4-c]pyridin-2-yl)carbonyl]amino}-3-oxopropyl)ethanediamide hydrochloride] | 0.86 nM
5 | CN1CCc2nc(C(=O)N[C@@H](CNC(=O)C(=O)Nc3ccc(Cl)cc3)c3cnco3)sc2C1 [Example 62, N^1-(4-Chlorophenyl)-N^2-[(2S)-2-{[(5-methyl-4,5,6,7-tetrahydrothiazolo[5,4-c]pyridin-2-yl)carbonyl]amino}-2-(1,3-oxazol-5-yl)ethyl]ethanediamide hydrochloride] | 1.8 nM
6 | CN1CCc2nc(C(=O)N[C@@H](CNC(=O)C(=O)Nc3ccc(Br)cc3)C(=O)N(C)C)sc2C1 [Example 38, N^1-(4-Bromophenyl)-N^2-((2S)-3-(dimethylamino)-2-{[(5-methyl-4,5,6,7-tetrahydrothiazolo[5,4-c]pyridin-2-yl)carbonyl]amino}-3-oxopropyl)ethanediamide hydrochloride] | 0.81 nM
7 | CN1CCc2nc(C(=O)N[C@@H](CNC(=O)C(=O)Nc3ccc(Cl)cn3)C(=O)N(C)C)sc2C1 [Example 26, N^1-(5-Chloropyridin-2-yl)-N^2-((2S)-3-(dimethylamino)-2-{[(5-methyl-4,5,6,7-tetrahydrothiazolo[5,4-c]pyridin-2-yl)carbonyl]amino}-3-oxopropyl)ethanediamide hydrochloride] | 2.4 nM
8 | CN1CCc2nc(C(=O)NC(CNC(=O)C(=O)Nc3ccc(Cl)cn3)C(=O)N3CCS(=O)(=O)CC3)sc2C1 (centres unmarked) [Example 2, N^1-(5-Chloropyridin-2-yl)-N^2-(3-(1,1-dioxothiomorpholin-4-yl)-2-{[(5-methyl-4,5,6,7-tetrahydrothiazolo[5,4-c]pyridin-2-yl)carbonyl]amino}-3-oxopropyl)ethanediamide hydrochloride] | 7.1 nM
